Source: patent US20250108064A1, “PHOSPHATE PRODRUGS OF CANNABINOIDS” (priority 2021, published 2025)

Columns and labels:
physchem = assay type: physicochemical; conditions: aqueous buffer, kinetic from dmso stock; nephelometry, PBS pH 7.0-7.3, 1% DMSO, 25° C., 90 min
Experimental: General Experimental: Nephelometry experiments were performed using untreated Corning® Costar® 96-well black polystyrene plates with clear flat bottoms. Sample stock solutions and serial dilutions were prepared with DriSolv® DMSO purchased from MilliporeSigma. All 100-fold dilutions and replicate experiments were prepared using Gibco® Dulbecco's phosphate-buffered saline (DPBS, no calcium, no magnesium) with a pH range of 7.0-7.3 as aqueous media. […] Nephelometry data was obtained using a NEPHELOstar® microplate reader and processed with MARS data analysis software from BMG LabTech.
Procedure for Nephelometry Experiments: Tested compounds were dissolved in 100% DMSO to make stock solutions of specified concentrations, ranging from 10 mM minimum up to 50 mM maximum. The sample then underwent serial dilution in a 96-well plate (Corning® Costar®). Well A1 of the plate contained 100% DMSO. […] Using a 12 channel multichannel pipette, 2.5 μL of sample from row A was transferred to each well in row B through row H of the plate. Next, 30 μL of PBS (pH=7.0-7.3) was added to row B through row H, providing each well with 32.5 μL. The plate was then incubated for 30 sec with shaking. Finally, 217.5 μL of PBS buffer was added to row B through row H, and the entire plate was incubated with shaking at 25° C. for 90 min. Note: The final volume of DMSO in actual experiments with PBS buffer was 1% throughout the plate. After 90 min, the 96-well plate was analyzed with a NEPHELOstar® instrument and the data was processed with MARS data analysis software.

[1] = Plasma stability assay (human plasma); assay type: in vitro ADME; conditions: 37° C., read-out: T½ in human plasma (converted)
Experimental: General Experimental: Procaine and Procainamide were purchased from Sigma-Aldrich. Human plasma was obtained from BioIVT (Cat. No. […]2N) and 1X Dulbecco's PBS (pH 7.4, Gibco) was obtained from Thermos Fischer. Stock solutions were prepared in 100% DMSO, and suitable dilutions of target analytes were prepared in methanol for method development.
Procedure for Plasma Stability Assay: Test compounds were dissolved in DMSO to make a stock solution of 10 mM and then diluted to 500 μM in buffer (or 70% MeOH). Human plasma was thawed at ambient temperature and is aliquoted ([…]) to a 1.5 mL Eppendorf tube in duplicates (A and B) for each compound. Plasma was incubated at 37° C. for 10 minutes in an incubator shaker at 150 rpm; the reaction was initiated by the addition of the test compound (6.0 μL) and vortex mixing. The total reaction volume was 1000 μL where the final organic solvent concentrations were 0.6% MeOH and 0.03% DMSO. The spiked plasma samples were incubated at 37° C. for 4 hrs. The reactions were terminated at time points 0, 15, 30, 60, 120, 180, and 240 min by taking a 100 μL aliquot from the test incubation mixture and immediately quenching it in ice-cold acetonitrile containing internal standard (150 μL with 2 μM ISTD), followed by a quick vortex mixing. In addition, matrix blank was prepared by adding acetonitrile solutions containing ISTD to plasma samples without any of the analytes or control compounds. Also, an additional tube was made to measure compound degradation in PBS buffer. The samples were centrifuged at 15000 rpm for 25 min at 4° C. The supernatant was transferred to an LC-MS vial for analysis by LC/MS-MS. Each time point was run in duplicates followed by in-between blank washes to avoid the carryover and to equilibrate the column. Half-life (T1/2) was calculated using the data obtained from LC-MS/MS and by plotting ln (% remaining of the parent prodrug) versus time and performing linear regression to determine slope. Slope=−k and T1/2=0.693/k for first-order kinetics.
These positive controls were run in parallel to test the systems for competency.

C=C(C)[C@@H]1CCC(C)=C[C@H]1c1c(O)cc(CCCCC)cc1OC(=O)C1(OP(=O)(O)O)CC1.N.N [7b, 1-((((1′R,2′R)-6-hydroxy-5′-methyl-4-pentyl-2′-(prop-1-en-2-yl)-1′,2′,3′,4′-tetrahydro-[1,1′-biphenyl]-2-yl)oxy)carbonyl)cyclopropyl phosphate di-ammonium salt]
solubility (physchem): > 500 µM | half-life [1]: 5.3 h
